Experimental findings from PubChem BioAssay (NCI) are described below.

Several values for one entry are separate records, joined by “and”; a condition that tells them apart may be missing. Equal entries are not always repeated.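 1) Cells in 96-well plates. 2) Compound, 48 h, 5 concentrations. 3) Linear interpolation between surrounding doses. 4) Unreached endpoint = highest concentration. At the GI50, growth is halved. TGI is the concentration that stops growth completely.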

Some test systems named below: HT29 colon; 786-0 renal; HCC-2998 colon; NCI-H23 lung; SNB-75 CNS; NCI-H522 lung; SF-295 CNS; OVCAR-3 ovarian; U251 CNS; MOLT-4 leukemia.
Holding throughout (assay): NCI-60 cell line screen, 48 h

With `Cn1cc(-c2ccc(-c3ccc(C4=NC5(CC5)C(=O)N4C[C@@H]4CCN(C(=O)C5CC5)C4)cc3)cc2)cn1`, the GI50 was 12.5 µM in the assay on HT29 colon; 10.5 µM in the assay on 786-0 renal; 15.2 µM in the assay on HCC-2998 colon; 12.7 µM with NCI-H23 lung; 20 µM in the assay with SNB-75 CNS; 12.3 µM in the assay on NCI-H522 lung. Besides, the GI50 is 10.8 µM in the assay with SF-295 CNS, 11.5 µM in the assay with OVCAR-3 ovarian, 10.5 µM with U251 CNS and 4.31 µM with MOLT-4 leukemia. Besides, the TGI in the assay on HT29 colon was more than 100 µM; in the assay on 786-0 renal, more than 100 µM; with HCC-2998 colon it was 29.9 µM; in the assay with NCI-H23 lung, 41.8 µM; with SNB-75 CNS, more than 100 µM; in the assay on NCI-H522 lung it was 40.6 µM. Besides, the TGI with SF-295 CNS amounted to 29.2 µM; with OVCAR-3 ovarian, 28.1 µM; in the assay with U251 CNS, 29 µM; with MOLT-4 leukemia it was 80.8 µM.

As for `Cc1cnc(C(=O)Nc2nc3ccc(S(=O)(=O)Nc4ccc(C5(C(F)(F)F)CC5)cc4)cc3[nH]2)cn1`, the GI50 is 0.364 µM in the assay with HT29 colon; 0.484 µM in the assay with 786-0 renal; 1.13 µM in the assay on HCC-2998 colon; 0.416 µM in the assay with NCI-H23 lung; 0.183 µM with SNB-75 CNS; 0.251 µM with NCI-H522 lung. The GI50 is 0.237 µM in the assay with SF-295 CNS, 0.25 µM in the assay on OVCAR-3 ovarian, 0.57 µM in the assay with U251 CNS and 0.501 µM in the assay on MOLT-4 leukemia. For the same compound, the TGI in the assay with HT29 colon came to 10.9 µM; in the assay on 786-0 renal, 6.65 µM; with HCC-2998 colon, 10.4 µM; with NCI-H23 lung, 5.98 µM; in the assay on SNB-75 CNS it was 0.786 µM; in the assay on NCI-H522 lung, 11.2 µM. Moreover, the TGI is 3.27 µM in the assay on SF-295 CNS, 1.34 µM with OVCAR-3 ovarian, 5.4 µM in the assay on U251 CNS and 14.5 µM with MOLT-4 leukemia.

For the compound `Cc1ncc(C(=O)Nc2ccc(CN3CCN(C)CC3)c(C(F)(F)F)c2)cc1C#Cc1cnc(N)cc1C#N`, the GI50 in the assay on HT29 colon is 0.0481 µM; in the assay with 786-0 renal, 0.38 µM; in the assay with HCC-2998 colon, 1.11 µM; in the assay on NCI-H23 lung it was 0.707 µM; in the assay on SNB-75 CNS, 1.21 µM; in the assay on NCI-H522 lung it was 0.405 µM. Also, the GI50 with SF-295 CNS was 1.88 µM; in the assay with OVCAR-3 ovarian, 0.995 µM; in the assay on U251 CNS it was 1.63 µM; with MOLT-4 leukemia, 0.336 µM. The TGI in the assay with HT29 colon is 2.38 µM; in the assay on 786-0 renal, 0.835 µM; in the assay on HCC-2998 colon, 3.39 µM; in the assay with NCI-H23 lung, 3.21 µM; with SNB-75 CNS, 3.44 µM; in the assay on NCI-H522 lung it was 3.24 µM. Besides, the TGI worked out at 3.98 µM in the assay on SF-295 CNS, 3.25 µM in the assay with OVCAR-3 ovarian, 4.02 µM in the assay with U251 CNS and 3.16 µM in the assay on MOLT-4 leukemia.

Consider `CC12CCC(Br)C(C)(C)C1CC=C1C(=O)OCC1O2` (configuration not stated), for which the TGI in the assay on HT29 colon was 87.5 µM; in the assay on 786-0 renal it was more than 48.6 µM; in the assay on HCC-2998 colon, 24.9 µM; in the assay on NCI-H23 lung it was 32 µM; in the assay with SNB-75 CNS, 34.7 µM; in the assay with NCI-H522 lung, 11.7 µM. In addition, the TGI in the assay on SF-295 CNS is 37.6 µM; in the assay on OVCAR-3 ovarian, 31.3 µM; in the assay with U251 CNS it was 23.2 µM; in the assay with MOLT-4 leukemia, more than 100 µM.

`C=C1C(=O)O[C@H]2[C@H]1CC/C(Cn1cc(-c3ccccc3C(F)(F)F)nn1)=C\CC[C@@]1(C)O[C@@H]21`: the GI50 in the assay with HT29 colon was 1.79 µM; with 786-0 renal, 1.84 µM; with HCC-2998 colon, 1.85 µM; in the assay on NCI-H23 lung, 1.75 µM; with SNB-75 CNS, 2.97 µM; with NCI-H522 lung it was 1.38 µM. The GI50 with SF-295 CNS is 10.3 µM; with OVCAR-3 ovarian, 1.04 µM; in the assay on U251 CNS it was 1.83 µM; with MOLT-4 leukemia, 3.03 µM. In addition, the TGI in the assay with HT29 colon was 3.75 µM; in the assay on 786-0 renal it was 3.92 µM; in the assay with HCC-2998 colon, 3.47 µM; with NCI-H23 lung, 3.57 µM; with SNB-75 CNS it was 17.5 µM; in the assay with NCI-H522 lung, 3.13 µM. Also, the TGI was 22.6 µM with SF-295 CNS, 2.33 µM in the assay with OVCAR-3 ovarian, 3.83 µM with U251 CNS and 10.9 µM in the assay on MOLT-4 leukemia.

Turning to `COc1ccc2c(c1)C(=O)c1c-2n(CCCI)c(=O)c2cc([N+](=O)[O-])ccc12`, the GI50 was 0.16 µM and 0.437 µM with HT29 colon; 0.106 µM and 0.0522 µM in the assay with 786-0 renal; 0.63 µM and 0.797 µM with HCC-2998 colon; 0.16 µM and 0.119 µM in the assay with NCI-H23 lung; 0.198 µM and 0.368 µM with SNB-75 CNS; 0.122 µM and 0.1 µM in the assay on SF-295 CNS. Besides, the GI50 is 1.08 µM and 2.99 µM with OVCAR-3 ovarian; 0.138 µM and 0.047 µM with U251 CNS; 0.06 µM and 0.0214 µM in the assay on MOLT-4 leukemia. Further, the TGI with HCC-2998 colon is 6.41 µM and 21.9 µM; in the assay with NCI-H23 lung, 0.988 µM and 1.27 µM; with SNB-75 CNS, 2.37 µM and 15.2 µM; with NCI-H522 lung, 50 µM and 98.8 µM; with SF-295 CNS, 50 µM and 66.8 µM; with OVCAR-3 ovarian it was 19.4 µM and 20.1 µM. The TGI with U251 CNS was 5.64 µM and 1.27 µM; in the assay on MOLT-4 leukemia, 0.971 µM and 0.117 µM.

For `CC(=O)OCc1cc2ccccc2nc1C(Br)(Br)Br`, the TGI in the assay with HT29 colon came to 44.9 µM; with 786-0 renal it was 46 µM; in the assay on HCC-2998 colon, 29.3 µM; in the assay with NCI-H23 lung, 29.8 µM; with SNB-75 CNS, 39.9 µM; with NCI-H522 lung, 34 µM. Also, the TGI stood at 32.9 µM with SF-295 CNS, 30.2 µM in the assay on OVCAR-3 ovarian, 28.1 µM with U251 CNS and 28.1 µM in the assay on MOLT-4 leukemia.

`CN(C)CC/[N+]([O-])=C(/c1ccccc1)C12CC3CC(CC(C3)C1)C2`: the TGI in the assay with HT29 colon worked out at 23.8 µM; with 786-0 renal, 26.8 µM; with HCC-2998 colon it was 37.6 µM; in the assay with NCI-H23 lung, 37.4 µM; in the assay on SNB-75 CNS, 24.7 µM; in the assay on NCI-H522 lung it was 29.2 µM. The TGI in the assay on SF-295 CNS was found to be 27.5 µM; in the assay with OVCAR-3 ovarian, 27.8 µM; with U251 CNS, 29.7 µM; with MOLT-4 leukemia, 34.1 µM.

In the case of `O=C1C(Cl)=C(NCc2ccco2)C(=O)c2ccccc21`, the GI50 with HT29 colon is 6.14 µM; in the assay with 786-0 renal, 29 µM; in the assay on HCC-2998 colon, 21.7 µM; with NCI-H23 lung, 2.5 µM; in the assay on SNB-75 CNS it was 2.25 µM; in the assay with NCI-H522 lung it was 7.15 µM. Besides, the GI50 was 8.24 µM in the assay with SF-295 CNS, 4.93 µM with OVCAR-3 ovarian, 17 µM in the assay with U251 CNS and 52.1 µM in the assay with MOLT-4 leukemia. Also, the TGI is more than 100 µM in the assay with HT29 colon; 72.3 µM in the assay on 786-0 renal; 50.8 µM in the assay on HCC-2998 colon; 10.4 µM with NCI-H23 lung; 7.53 µM with SNB-75 CNS; more than 55.2 µM with NCI-H522 lung. Besides, the TGI is 41.6 µM with SF-295 CNS, 19.4 µM with OVCAR-3 ovarian, more than 93.7 µM with U251 CNS and more than 100 µM in the assay on MOLT-4 leukemia.

`O=Cc1c(O)c(C(=O)Nc2ccc3[nH]c(=O)[nH]c3c2)cc2ccccc12`: the TGI with HT29 colon, in the assay with 786-0 renal, in the assay on HCC-2998 colon, in the assay with NCI-H23 lung, in the assay with SNB-75 CNS and in the assay with NCI-H522 lung was more than 100 µM in each case. Further, the TGI in the assay with SF-295 CNS, with OVCAR-3 ovarian, with U251 CNS and in the assay on MOLT-4 leukemia was more than 100 µM in each case.

In the case of `COC(=O)c1c2cccccc-2c(Cc2c3cccccc-3c(C(=O)OC)c2O)c1O`, the TGI in the assay with HT29 colon, with 786-0 renal, in the assay on HCC-2998 colon, with NCI-H23 lung, in the assay on SNB-75 CNS and in the assay with NCI-H522 lung was more than 100 µM each time. Moreover, the TGI in the assay with SF-295 CNS, in the assay with OVCAR-3 ovarian, in the assay with U251 CNS and in the assay on MOLT-4 leukemia was more than 100 µM each time.

As to `O=C(OC[C@H]1O[C@H](OC(=O)c2cc(O)c(O)c(OC(=O)c3cc(O)c(O)c(O)c3)c2)[C@H](OC(=O)c2cc(O)c(O)c(OC(=O)c3cc(O)c(O)c(O)c3)c2)[C@@H](OC(=O)c2cc(O)c(O)c(OC(=O)c3cc(O)c(O)c(O)c3)c2)[C@@H]1OC(=O)c1cc(O)c(O)c(OC(=O)c2cc(O)c(O)c(O)c2)c1)c1cc(O)c(O)c(OC(=O)c2cc(O)c(O)c(O)c2)c1`, the GI50 in the assay with HT29 colon is 3.86 µM; in the assay on 786-0 renal, 4.89 µM; in the assay on HCC-2998 colon, 2.52 µM; in the assay with NCI-H23 lung, 1.56 µM; with SNB-75 CNS, 2.37 µM; in the assay with NCI-H522 lung, 1.96 µM. Further, the GI50 in the assay with SF-295 CNS was 0.941 µM; with OVCAR-3 ovarian, 4.68 µM; in the assay on U251 CNS it was 1.9 µM; in the assay on MOLT-4 leukemia, 4.32 µM. Also, the TGI in the assay with HT29 colon is 9.22 µM; in the assay with 786-0 renal, 20.2 µM; in the assay with HCC-2998 colon, more than 25 µM; in the assay with NCI-H23 lung, more than 25 µM; with SNB-75 CNS it was more than 25 µM; in the assay on NCI-H522 lung, 7.68 µM. Further, the TGI in the assay with SF-295 CNS was more than 25 µM; in the assay with OVCAR-3 ovarian, 22.1 µM; in the assay on U251 CNS, more than 25 µM; in the assay on MOLT-4 leukemia, more than 25 µM.

For `O=C1c2ccccc2S(=O)(=O)c2cc(-c3nn[nH]n3)ccc21`, the TGI in the assay on HT29 colon, in the assay on 786-0 renal, in the assay with HCC-2998 colon, in the assay with NCI-H23 lung, in the assay with SNB-75 CNS and in the assay on NCI-H522 lung was more than 100 µM in each case. Moreover, the TGI with SF-295 CNS, with OVCAR-3 ovarian, in the assay on U251 CNS and in the assay on MOLT-4 leukemia was more than 100 µM each time.
